The test system of this experiment is T1, PbzB.
T1 construct: recombinant, His-SUMO-tag, expressed in and purified from E. coli BL21(DE3); homodimer (apo crystal structure)
Description: steady-state kinetics of 2-hydroxymethylserine formation (LC-MS). It counts as biochemical, Pseudomonas chlororaphis subsp. piscium. Conditions: cofactors PLP and 5,10-methylenetetrahydrofolate (mTHF); potassium phosphate buffer pH 7.5 (stated for the glycine assay; same condition for serine).

As to `N[C@H](CO)C(=O)O` [D-serine], the Km is 603 ± 56.7 µM.

Regarding `N[C@@H](CO)C(=O)O` [L-serine], the Km is 69.52 ± 0.03 µM.

Broadly, the Km is the substrate concentration at which the rate is half of its maximum.
